Reference: article PMC6327044, “A chemical biology screen identifies a vulnerability of neuroendocrine cancer cells to SQLE inhibition” (Nature Communications, 2019)

Legend:
Experiment in all cases: cells
Design in all cases: species or system panel of 482 human cancer cell lines; ATPLite luminescence growth inhibition after treatment, nine-point dilution curve, 482 cancer cell lines, 384-well
Settings in all cases: 72 h, recommended growth medium
NCIH1581_LUNG = tested on: NCIH1581_LUNG
Procedure: (§1) Cells were seeded in recommended growth media in black 384-well tissue culture treated plates at 500 cells per well. Cells were equilibrated in assay plates via centrifugation and placed in incubators for 24 h before treatment. […] Treated assay plates were incubated with compounds for 72 h and subsequently were developed for endpoint analysis using ATPLite. Each compound was assessed using a nine-point dilution curve. Cells were defined as sensitive to a given compound based on GI75 < 2 μM with manual quality control of curve fit. GI75 is defined as a drug concentration that causes a 75% reduction in assay readout relative to dimethyl sulfoxide (DMSO)-treated controls. To identify novel cancer vulnerabilities, we screened a panel of 482 cell lines with a diverse set of metabolic inhibitors. […] Given that SCLC is thought to arise from neuroendocrine cells in the lung[9], we tested the NB-598 sensitivity in a panel of 42 SCLC cell lines. We calculated a quantitative metric of sensitivity for each cell line based on the area under the curve (AUC) of the mu/mu.max curve to more accurately capture the potency and extent of NB-598 effects. […] We categorized the SCLC cell lines as sensitive (5/42), moderate (11/42), and insensitive (26/42) (Fig. 1c and Supplementary Data 2) and focused all subsequent efforts on this indication. […] To further understand the patterns of sensitivity, we conducted RNA sequencing (RNA-Seq; Supplementary Data 3) and proteomic (Supplementary Data 4) characterization of the SCLC panel to identify unbiased expression signatures associated with enhanced NB-598 response (Supplementary Fig. 1 and Supplementary Fig. 2). Given the growing understanding that SCLC tumors can be further subdivided based on the status of lineage-defining transcription factors, ASLC1 and NEUROD1, we specifically investigated NB-598 response as the function of ASCL1 and NEUROD1 expression levels. […] To further dissect the NB-598 response within the ASCL1-high/NEUROD-low subset of 25 cell lines, we identified RNA-Seq and proteomics expression signatures associated with NB

HGC27_STOMACH = tested on: HGC27_STOMACH
Procedure: as §1

UACC893_BREAST = tested on: UACC893_BREAST
Procedure: as §1

SNU61_LARGE_INTESTINE = tested on: SNU61_LARGE_INTESTINE
Procedure: as §1

HCC1588_LUNG = tested on: HCC1588_LUNG
Procedure: as §1

MORCPR_LUNG = tested on: MORCPR_LUNG
Procedure: as §1

TE14_OESOPHAGUS = tested on: TE14_OESOPHAGUS
Procedure: as §1

HEP3B217_LIVER = tested on: HEP3B217_LIVER
Procedure: as §1

NCIH1836_LUNG = tested on: NCIH1836_LUNG
Procedure: as §1

[1] = tested on: SUDHL4_HAEMATOPOIETIC_AND_LYMPHOID_TISSUE
Procedure: as §1

[2] = tested on: SUDHL5_HAEMATOPOIETIC_AND_LYMPHOID_TISSUE
Procedure: as §1

[3] = tested on: MM1R_HAEMATOPOIETIC_AND_LYMPHOID_TISSUE
Procedure: as §1

KYSE520_OESOPHAGUS = tested on: KYSE520_OESOPHAGUS
Procedure: as §1

IM95_STOMACH = tested on: IM95_STOMACH
Procedure: as §1

NCIH2122_LUNG = tested on: NCIH2122_LUNG
Procedure: as §1

NCIH1568_LUNG = tested on: NCIH1568_LUNG
Procedure: as §1

HCC70_BREAST = tested on: HCC70_BREAST
Procedure: as §1

CCN(C/C=C/C#CC(C)(C)C)Cc1cccc(OCc2cc(-c3ccsc3)cs2)c1 [NB-598]
GI50 (NCIH1581_LUNG): 0.0124 µM | GI50 (HGC27_STOMACH): 14.8 µM | GI50 (UACC893_BREAST): 1.19 µM | GI50 (SNU61_LARGE_INTESTINE): 0.28 µM | GI50 (HCC1588_LUNG): 5.16 µM | GI50 (MORCPR_LUNG): 2.69 µM | GI50 (TE14_OESOPHAGUS): 164 µM | GI50 (HEP3B217_LIVER): 9.96 µM | GI50 (NCIH1836_LUNG): 0.0147 µM | GI50 [1]: 10.6 µM | GI50 [2]: 0.0255 µM | GI50 [3]: 8.87 µM | GI50 (KYSE520_OESOPHAGUS): 45.5 µM | GI50 (IM95_STOMACH): 0.0118 µM | GI50 (NCIH2122_LUNG): 7.51 µM | GI50 (NCIH1568_LUNG): 7.98 µM | GI50 (HCC70_BREAST): 16.3 µM
